Reference: PubChem BioAssay AID330 (DTP/NCI, 2004)
Values joined by “and” are separate entries in the source; they are usually repeats but may differ in a detail not shown here. Equal values may be shown once. Inconclusive results and toxic doses are left out.

Tested on: P388 leukemia ip, CD2F1 mice, survival T/C
Test: NCI In Vivo Anticancer Drug Screen. Data for tumor model P388 Leukemia (intraperitoneal) in CD2F1 (CDF1) mice
Conditions: endpoint: median survival time, higher = longer survival
Procedure, shortened: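 Mice carrying the transplanted tumor received test compound or vehicle. Survival was recorded in each group, and the value is the treated-group measurement divided by that of the vehicle-treated control group.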

[1] = dose: 50.0 mg/kg/injection, schedule: Q01DX009 (ip), vehicle: saline with Tween-80
[2] = dose: 100.0 mg/kg/injection, schedule: Q01DX009 (ip), vehicle: saline with Tween-80
[3] = dose: 200.0 mg/kg/injection, schedule: Q01DX009 (ip), vehicle: saline with Tween-80

In the case of `CCCCCCCC(=O)OCC(=O)[C@]1(O)Cc2c(O)c3c(c(O)c2[C@@H](OC2CC(N)C(O)C(C)O2)C1)C(=O)c1c(OC)cccc1C3=O` (stereo partly drawn), the T/C (dose: 0.5 mg/kg/injection, schedule: Q01DX009 (ip), vehicle: saline sonified) is reported as 159 % of control, the T/C (dose: 0.5 mg/kg/injection, schedule: Q01DX009 (ip), vehicle: saline with Tween-80) is reported as 178 % of control and the T/C (dose: 0.5 mg/kg/injection, schedule: Q01DX009 (ip), vehicle: water) is reported as 158 % of control. For the same molecule, the T/C (dose: 1.0 mg/kg/injection, schedule: Q01DX009 (ip), vehicle: saline sonified) was 190 % of control, the T/C (dose: 1.0 mg/kg/injection, schedule: Q01DX009 (ip), vehicle: saline with Tween-80) was 185 % of control and the T/C (dose: 1.0 mg/kg/injection, schedule: Q01DX009 (ip), vehicle: water) was 181 % of control. For the same molecule, the T/C (dose: 1.73 mg/kg/injection, schedule: Q04DX003 (ip), vehicle: water) was 172 % of control, the T/C (dose: 2.0 mg/kg/injection, schedule: Q01DX009 (ip), vehicle: saline sonified) was 231 % of control and the T/C (dose: 2.0 mg/kg/injection, schedule: Q01DX009 (ip), vehicle: water) was 247 % of control. For the same molecule, the T/C (dose: 2.88 mg/kg/injection, schedule: Q04DX003 (ip), vehicle: water) was 198 % of control, the T/C (dose: 4.0 mg/kg/injection, schedule: Q01DX009 (ip), vehicle: saline with Tween-80) was 209 % of control and 92 % of control and the T/C (dose: 4.0 mg/kg/injection, schedule: Q01DX009 (ip), vehicle: water) was 104 % of control. For the same molecule, the T/C (dose: 4.8 mg/kg/injection, schedule: Q04DX003 (ip), vehicle: water) was 202 % of control, the T/C (dose: 8.0 mg/kg/injection, schedule: Q01DX009 (ip), vehicle: saline with Tween-80) was 114 % of control and the T/C (dose: 8.0 mg/kg/injection, schedule: Q04DX003 (ip), vehicle: water) was 190 % of control. The T/C (dose: 13.3 mg/kg/injection, schedule: Q04DX003 (ip), vehicle: water) was 111 % of control.

`Cc1ccc(-c2nnc(N)o2)cc1` was tested, and the T/C (dose: 60.0 mg/kg/injection, schedule: Q01DX005 (ip), vehicle: saline with Tween-80) was 100 % of control, the T/C (dose: 120.0 mg/kg/injection, schedule: Q01DX005 (ip), vehicle: saline with Tween-80) was 100 % of control and the T/C (dose: 240.0 mg/kg/injection, schedule: Q01DX005 (ip), vehicle: saline with Tween-80) was 99 % of control.

With `O=C(OCC(Cl)(Cl)Cl)N1[C@@H]2C=C[C@@H](N1C(=O)OCC(Cl)(Cl)Cl)[C@@]13CC(OCc4ccc(Br)cc4)CC21O3` (stereo partly drawn) the T/C (dose: 50.0 mg/kg/injection, schedule: Q01DX005 (ip), vehicle: Klucel (hydroxypropylcellulose) (HPC)) was 105 % of control, the T/C (dose: 100.0 mg/kg/injection, schedule: Q01DX005 (ip), vehicle: Klucel (hydroxypropylcellulose) (HPC)) was 95 % of control and the T/C (dose: 200.0 mg/kg/injection, schedule: Q01DX005 (ip), vehicle: Klucel (hydroxypropylcellulose) (HPC)) was 95 % of control.

For `CCCC[P+](c1ccccc1)(c1ccccc1)c1ccccc1`, the T/C (dose: 5.0 mg/kg/injection, schedule: Q01DX009 (ip), vehicle: saline sonified) was 118 % of control, the T/C (dose: 10.0 mg/kg/injection, schedule: Q01DX009 (ip), vehicle: saline sonified) was 122 % of control and the T/C (dose: 13.2 mg/kg/injection, schedule: Q01DX009 (ip), vehicle: saline sonified) was 118 % of control. For the same molecule, the T/C (dose: 20.0 mg/kg/injection, schedule: Q01DX009 (ip), vehicle: saline sonified) was 118 % of control and the T/C (dose: 30.0 mg/kg/injection, schedule: Q01DX009 (ip), vehicle: saline sonified) was 90 % of control.

For `c1ccc(P(CCP(c2ccccc2)c2ccccc2)c2ccccc2)cc1`, the T/C (dose: 25.0 mg/kg/injection, schedule: Q04DX003 (ip), vehicle: Klucel (hydroxypropylcellulose) (HPC)) was 117 % of control, the T/C (dose: 100.0 mg/kg/injection, schedule: Q04DX003 (ip), vehicle: Klucel (hydroxypropylcellulose) (HPC)) was 153 % of control and the T/C (dose: 200.0 mg/kg/injection, schedule: Q04DX003 (ip), vehicle: Klucel (hydroxypropylcellulose) (HPC)) was 161 % of control.

For `CCOC(=O)c1[nH]cnc1/N=N/c1nc(O)c(C#N)[nH]1`, the T/C (dose: 60.0 mg/kg/injection, schedule: Q01DX005 (ip), vehicle: suspension in saline) was 97 % of control, the T/C (dose: 120.0 mg/kg/injection, schedule: Q01DX005 (ip), vehicle: suspension in saline) was 100 % of control and the T/C (dose: 240.0 mg/kg/injection, schedule: Q01DX005 (ip), vehicle: suspension in saline) was 100 % of control.

In the case of `CC1(C)CC(=O)C(CC(=O)c2ccccc2)=C(NN=C(N)N)C1`, the T/C (dose: 50.0 mg/kg/injection, schedule: Q01DX009 (ip), vehicle: Klucel (hydroxypropylcellulose) (HPC)) is reported as 101 % of control, the T/C (dose: 100.0 mg/kg/injection, schedule: Q01DX009 (ip), vehicle: Klucel (hydroxypropylcellulose) (HPC)) is reported as 100 % of control and the T/C (dose: 200.0 mg/kg/injection, schedule: Q01DX009 (ip), vehicle: Klucel (hydroxypropylcellulose) (HPC)) is reported as 91 % of control.

`c1ccc2sc(SSc3nc4ccccc4s3)nc2c1` was tested, and the T/C [1] was 110 % of control, the T/C [2] was 108 % of control and the T/C [3] was 104 % of control. For the same molecule, the T/C (dose: 400.0 mg/kg/injection, schedule: Q01DX009 (ip), vehicle: saline with Tween-80) was 109 % of control.

For `O=C(Nc1ccc(-c2cn3ccccc3n2)cc1)c1ccccc1O`, the T/C [1] was 88 % of control, the T/C [2] was 87 % of control and the T/C [3] was 101 % of control.
